According to patent publication US8592421B2, “Cyclic bioisosters of purine system derivatives and a pharmaceutical composition based thereon” (priority 2003, dated 2013):

Tests used:
[1] = Electrochemical activity: polarographic reduction on mercury dripping electrode; assay type: physicochemical; conditions: for number of electrons participating in the reduction reaction: calculated with Geirovsky-Ilkovich equation; for i: 2.0% sodium chloride background, 9·10^−4 M; for i / −E1/2: 37° C., forward trace, average for the group of compounds; for −E1/2: vs SCE; for half-wave potential more positive at reverse stroke compared to forward stroke: polarograms of reverse stroke
[2] = test system: thrombocytes; test: ADP-induced aggregation of thrombocytes in vitro (Born method, plasma enriched with thrombocytes); assay type: cell-based, rabbit; conditions: 3-minute incubation, ADP 10^−5 M
Experimental: The aggregation of thrombocytes was studied by the Born method based on determination of the changes in the optical density of plasma enriched with thrombocytes after its incubation with an aggregation inductor.
Adenozinediphosphoric acid (ADP) was selected as an aggregation inductor, which in fact is an aggregation generator. Use was made of a sample (registration number 885) of the Sigma Diagnostics Company (USA) in final concentration of 10^−5 M.
The experiments were carried out on male rabbits of the “Chinchilla” breed having a mass of 2.7±0.3 kg. 18-24 hours prior to the experiment they were deprived of feed while preserving free access to water.
To obtain plasma enriched with thrombocytes, blood was taken from a cut of a marginal vein of the rabbit ear, the sample was stabilized with 3.8% of sodium citrate solution in a ratio of 9:1 and centrifuged at 200 g (1000 rev/min) for 10 minutes. The top supernatant layer enriched with thrombocytes was transferred by an automatic dropper into a silicone test tube and kept at 37° C. The plasma enriched with thrombocytes contained, on the average, […]. If this content exceeded the specified 3×10^8 blood platelets in 1 liter, this sample was diluted to the necessary concentration with plasma deprived of thrombocytes, which was obtained by centrifuging blood at 650 g during 10 minutes.
The measurements of the optical density of the samples were made on two-channel aggregometer of the “Chronolog” Company (USA). A flask containing 490 mkl of plasma rich with thrombocytes was placed in a device, into which a magnetic agitator covered with Teflon was lowered. The index of maximum amplitude of aggregation (MA) in percent of a fall of the plasma optical density under effect of the aggregation inductor was recorded. The control index MA of plasma was compared with the MA of plasma incubated for 3 minutes with different concentrations of the compounds: from 10^−3 to 10^−7 in vitro experiments or with plasma obtained 15, 30, 60 and 120 minutes after intravenous administration of different doses of the compounds in vivo experiments.
The process of aggregation of thrombocytes was recorded with the help of a computer; on the monitor screen the there were depicted curves reflecting changes of the optical density of the plasma enriched which was taken as a standard 100% compared to the optical density of the non-thrombocyte plasma taken for 0% content of thrombocytes.
Under in vitro conditions a flask was filled with blood plasma enriched with thrombocytes, to which an aggregation inductor ADP was added at a concentration of 10^−5 M, incubated for 3 minutes, and then the compounds according to the invention were introduced directly into the flask. Their action by aggregation of thrombocytes was studied after 3-minute incubation in a wide range of concentrations from 10^−3 to 10^−7 M to minimum concentration of 10^−7M not inducing no effect of suppressing the aggregation.

[3] = Chronic toxicity of suppositories: indexes of urine; assay type: in vivo, rats; conditions: rats, suppositories rectal, 1 month after administration
Experimental: The experiments were conducted on inbred rats.

Row | SMILES | number of electrons participating in the reduction reaction [1] | i ([1]; pH 7.0) [mkA] | −E1/2 ([1]; pH 7.0) [V] | i ([1]; pH 7.2) [mkA] | −E1/2 ([1]; pH 7.2) [V] | i ([1]; pH 7.4) [mkA] | −E1/2 ([1]; pH 7.4) [V] | i ([1]; pH 7.6) [mkA] | −E1/2 ([1]; pH 7.6) [V] | half-wave potential more positive at reverse stroke compared to forward stroke [1] [mV] | MA - fall of optical density of plasma, % to the standard ([2]; 10^−3 M, control 60.8 ± 3.4) [%] | MA - fall of optical density of plasma, % to the standard ([2]; 10^−4 M, control 60.0 ± 2.1) [%] | MA - fall of optical density of plasma, % to the standard ([2]; 10^−5 M, control 52.5 ± 2.1) [%] | MA - drop of optical density, % ([2]; 10^−6 M, control 52.8 ± 1.8) [%] | MA - drop of optical density, % ([2]; 10^−7 M, control 51.5 ± 2.1) [%] | also measured
1 | O=c1[nH]n([C@@H]2O[C@H](CO)[C@@H](O)[C@H]2O)c(=O)c2nc(O)cnc12.[Na].[Na] [Compound 23, disodium salt of 2-hydroxy-7-(β-D-ribofuranosile)pyrazine[2,3—Cl]-6H-pyridazine-5,8-dione] | 3.72 | 0.32 ± 0.03 | 0.16 ± 0.02 | 0.33 ± 0.04 | 0.19 ± 0.02 | 0.34 ± 0.03 | 0.175 ± 0.01 | 0.34 ± 0.02 | 0.16 ± 0.015 | 20.0 | – | – | – | – | – | –
2 | O=c1[nH][nH]c(=O)c2nccnc12.[Li] [Compound 25, lithium salt of pyrazine[2,3-d]-6H-pyridazine-5,8-dione] | 3.72 | 0.32 ± 0.03 | 0.16 ± 0.02 | 0.33 ± 0.04 | 0.19 ± 0.02 | 0.34 ± 0.03 | 0.175 ± 0.01 | 0.34 ± 0.02 | 0.16 ± 0.015 | 20.0 | 48.2 ± 2.9 | 48.6 ± 2.0 | 43.4 ± 3.2 | 50.3 ± 2.1 | 50.1 ± 3.0 | –
3 | Nc1ncc2c(=O)[nH][nH]c(=O)c2n1 [Compound 36, 2-amino-pyrimido[4,5-d]-6H-pyridazine-5,8-dione] | 3.5 | 0.30 ± 0.05 | 0.08 ± 0.02 | 0.26 ± 0.02 | 0.085 ± 0.015 | 0.30 ± 0.03 | 0.085 ± 0.02 | 0.30 ± 0.02 | 0.09 ± 0.02 | – | 45.8 ± 2.3 | 46.9 ± 2.4 | 40.1 ± 2.0 | 49.3 ± 2.6 | 49.7 ± 1.8 | –
4 | O=c1[nH][nH]c(=O)c2c(Br)ncnc12.[K] [Compound 37, potassium salt of 4-bromine-pyrimido[4,5-D]-6H-pyridazine-5,8-dione] | – | – | – | – | – | – | – | – | – | – | 46.9 ± 2.7 | 47.1 ± 2.0 | 40.6 ± 1.7 | 48.1 ± 2.9 | 50.1 ± 1.0 | Bilirubin (urine) ([3]; dose 50 mg/kg): <5 Mkmol/l; Glucose (urine) ([3]; dose 50 mg/kg): <5 mmol/L; Ketone bodies (urine) ([3]; dose 50 mg/kg): <1 mmol/L; Potassium (urine) ([3]; dose 50 mg/kg): 6.12 ± 1.4 g/L; Protein (urine) ([3]; dose 50 mg/kg): 0.70 ± 0.19 g/L; Sodium (urine) ([3]; dose 50 mg/kg): 1.4 ± 0.2 g/L; Urea (urine) ([3]; dose 50 mg/kg): 427 ± 137 mmol/L; Urobilinogen (urine) ([3]; dose 50 mg/kg): <15 Mkmol/l; pH (urine) ([3]; dose 50 mg/kg): 6.4 ± 0.4; Bilirubin (urine) ([3]; dose 500 mg/kg): <5 Mkmol/l; Glucose (urine) ([3]; dose 500 mg/kg): <5 mmol/L; Ketone bodies (urine) ([3]; dose 500 mg/kg): <1 mmol/L; Potassium (urine) ([3]; dose 500 mg/kg): 6.44 ± 1.3 g/L; Protein (urine) ([3]; dose 500 mg/kg): 0.72 ± 0.14 g/L; Sodium (urine) ([3]; dose 500 mg/kg): 0.88 ± 0.4 g/L; Urea (urine) ([3]; dose 500 mg/kg): 489 ± 152 mmol/L; Urobilinogen (urine) ([3]; dose 500 mg/kg): <15 Mkmol/l; pH (urine) ([3]; dose 500 mg/kg): 6.2 ± 0.3
